Like-named read-outs stand apart in the source and are kept apart here.
Target: tick anticoagulant peptide (TAP) (Ornithodoros moubata, UniProt P17726)
Sequence (P17726 whole entry): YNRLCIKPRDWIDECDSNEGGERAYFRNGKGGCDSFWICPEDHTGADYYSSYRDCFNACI

SMILES: [Cl-].[Na+] [NaCl]
- reduction of the extent of denaturation of TAP by 8M urea (in the presence of 0.5 M NaCl): 23%
- reduction of the extent of denaturation of TAP by 8M urea (in the presence of 1M NaCl): 50%
- reversal of the structure of denatured TAP (in the presence of urea, after addition of the protein stabilizer (FIG. 7 column 3)): converts back to the native structure

Reference: patent publication US7601683B2, “Protein conformational isomers, methods of making, methods for using, compositions comprising and products made therewith” (Board of Regents of the University of Texas System, priority 2001, dated 2009)
